# In patent US12036312B2, “Non-aqueous topical compositions comprising a halogenated salicylanilide” (priority 2016, dated 2024):
# Read-outs that look alike come from different tables or passages of the source.
# What was measured:
# S. aureus = experiment: MIC assay according to CLSI criteria, Example 2, S. aureus strains; format: cell-based, Staphylococcus aureus; details: for MIC: Staphylococcus aureus, read-out: MIC
# Outline: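 Broth microdilution per CLSI in cation-adjusted Mueller Hinton broth, ~5×10^5 exponential-phase cells per well, aerobic at 37° C for 18 hours; OD600 read at end.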
# P. acnes = format: cell-based, Propionibacterium acnes; details: for Frequency of mutation/ml: MIC × 4
smiles,measurement,setting,value
"CC(=O)O[C@H]1C[C@@]2(C)[C@@H](C[C@@H](O)[C@H]3[C@@]4(C)CC[C@@H](O)[C@@H](C)[C@@H]4CC[C@@]32C)/C1=C(\CCC=C(C)C)C(=O)O [Fusidic acid, fusidic acid]",MIC,"S. aureus; MRSA, strain MRSA 01",0.125 µg/mL
same,MIC,"S. aureus; MRSA, strain MRSA 02",0.5 µg/mL
same,MIC,"S. aureus; MRSA, strain MRSA 03",16 µg/mL
same,MIC,"S. aureus; MRSA, strain MRSA 04",0.25 µg/mL
same,MIC,"S. aureus; MRSA, strain MRSA 05",0.125 µg/mL
same,MIC,"S. aureus; MRSA, strain MRSA 06",0.125 µg/mL
same,MIC,"S. aureus; MRSA, strain MRSA 07",0.25 µg/mL
same,MIC,"S. aureus; MRSA, strain MRSA 08",0.125 µg/mL
same,MIC,"S. aureus; MRSA, strain MRSA 09",0.25 µg/mL
same,MIC,"S. aureus; MRSA, strain MRSA 10",1 µg/mL
same,MIC,"S. aureus; MRSA, strain MRSA 11",1 µg/mL
same,MIC,"S. aureus; MRSA, strain MRSA 12",4 µg/mL
same,MIC,"S. aureus; MRSA, strain MRSA 14",> 16 µg/mL
same,MIC,"S. aureus; MRSA, strain MRSA 16",0.25 µg/mL
same,MIC,"S. aureus; MRSA, strain MRSA 18",0.25 µg/mL
same,MIC,"S. aureus; MRSA, strain MRSA 19",0.125 µg/mL
same,MIC,"S. aureus; MRSA, strain MRSA 20",0.125 µg/mL
same,MIC,"S. aureus; MRSA, strain MRSA 21",0.125 µg/mL
same,MIC,"S. aureus; MRSA, strain MRSA 23",0.25 µg/mL
same,MIC,"S. aureus; MRSA, strain MRSA 24",0.25 µg/mL
same,MIC,"S. aureus; MRSA, strain MRSA 25",16 µg/mL
same,MIC,"S. aureus; MRSA, strain MRSA 26",0.5 µg/mL
same,MIC,"S. aureus; MRSA, strain MRSA 27",0.25 µg/mL
same,MIC,"S. aureus; MRSA, strain MRSA 30",0.125 µg/mL
same,MIC,"S. aureus; MRSA, strain MRSA 31",0.25 µg/mL
same,MIC,"S. aureus; MRSA, strain MRSA 32",0.5 µg/mL
same,MIC,"S. aureus; MRSA, strain MRSA 33",0.5 µg/mL
same,MIC,"S. aureus; MRSA, strain MRSA 34",0.25 µg/mL
same,MIC,"S. aureus; MRSA, strain MRSA 35",16 µg/mL
same,MIC,"S. aureus; MRSA, strain MRSA 36",8 µg/mL
same,MIC,"S. aureus; MRSA, strain MRSA 37",0.5 µg/mL
same,MIC,"S. aureus; MRSA, strain MRSA 38",8 µg/mL
same,MIC,"S. aureus; MRSA, strain MRSA 39",8 µg/mL
same,MIC,"S. aureus; MRSA, strain MRSA 40",0.125 µg/mL
same,MIC,"S. aureus; MRSA, strain MRSA 42",0.25 µg/mL
same,MIC,"S. aureus; MRSA, strain MRSA 49",0.25 µg/mL
same,MIC,"S. aureus; MRSA, strain MRSA 50",0.03 µg/mL
same,MIC,"S. aureus; MRSA, strain MRSA 53",0.25 µg/mL
same,MIC,"S. aureus; MRSA, strain MRSA 64",0.25 µg/mL
same,MIC,"S. aureus; MRSA, strain MRSA 67",0.25 µg/mL
same,MIC,"S. aureus; MRSA, strain MRSA 72",16 µg/mL
same,MIC,"S. aureus; MRSA, strain MRSA 73",0.25 µg/mL
same,MIC,"S. aureus; MRSA, strain MRSA 74",0.25 µg/mL
same,MIC,"S. aureus; MRSA, strain MRSA 75",0.5 µg/mL
same,MIC,"S. aureus; MRSA, strain MRSA 76",0.25 µg/mL
same,MIC,"S. aureus; MRSA, strain MRSA 77",16 µg/mL
same,MIC,"S. aureus; MRSA, strain MRSA 79",0.5 µg/mL
same,MIC,"S. aureus; MRSA, strain MRSA 81",0.25 µg/mL
same,MIC,"S. aureus; MRSA, strain MRSA 85",4 µg/mL
same,MIC,"S. aureus; MRSA, strain MRSA 86",> 16 µg/mL
same,MIC,"S. aureus; MRSA, strain MRSA 87",0.125 µg/mL
same,MIC,"S. aureus; MRSA, strain MRSA 88",0.06 µg/mL
same,MIC,"S. aureus; MRSA, strain MRSA 90",16 µg/mL
same,MIC,"S. aureus; MRSA, strain MRSA 91",0.25 µg/mL
same,MIC,"S. aureus; MRSA, strain MRSA 92",8 µg/mL
same,MIC,"S. aureus; MRSA, strain MRSA 94",0.125 µg/mL
same,MIC,"S. aureus; MRSA, strain MRSA 95",8 µg/mL
same,MIC,"S. aureus; MRSA, strain MRSA 96",0.125 µg/mL
same,MIC,"S. aureus; MRSA, strain MRSA 97",8 µg/mL
same,MIC,"S. aureus; MRSA, strain MRSA 99",0.125 µg/mL
same,MIC,"S. aureus; MRSA, strain MRSA 100",0.125 µg/mL
same,MIC,"S. aureus; MRSA, strain MRSA 101",8 µg/mL
same,MIC,"S. aureus; MRSA, strain MRSA 103",8 µg/mL
same,MIC,"S. aureus; MRSA, strain MRSA 104",0.25 µg/mL
same,MIC,"S. aureus; MRSA, strain MRSA 105",0.125 µg/mL
same,MIC,"S. aureus; MRSA, strain MRSA 106",0.125 µg/mL
same,MIC,"S. aureus; MRSA, strain MRSA 107",0.25 µg/mL
same,MIC,"S. aureus; MRSA, strain MRSA 108",4 µg/mL
same,MIC,"S. aureus; MRSA, strain MRSA 109",0.25 µg/mL
same,MIC,"S. aureus; MRSA, strain MRSA 111",8 µg/mL
same,MIC,"S. aureus; MRSA, strain MRSA 113",0.125 µg/mL
same,MIC,"S. aureus; MSSA, strain MSSA 01",4 µg/mL
same,MIC,"S. aureus; MSSA, strain MSSA 02",4 µg/mL
same,MIC,"S. aureus; NEWMAN, strain Newman",0.25 µg/mL
same,frequency of mutation of resistance,P. acnes; P. acnes,~1×10^−8
same,Frequency of mutation/ml,P. acnes; P. acnes strain 998,9.17e-08 mL⁻¹
same,Frequency of mutation/ml,P. acnes; P. acnes strain 1044,7.21e-08 mL⁻¹
same,Frequency of mutation/ml,P. acnes; P. acnes strain CSS3023,1.82e-08 mL⁻¹
same,Frequency of mutation/ml,P. acnes; P. acnes strain CSS3288,6.15e-08 mL⁻¹
"O=C(Nc1ccc([N+](=O)[O-])cc1Cl)c1cc(Cl)ccc1O [Niclosamide, niclosamide]",MIC distribution: percentage of Staphylococcus aureus strains,"S. aureus; MIC 0.5 μg/ml, 205 strains",27% (55/205)
same,MIC50,S. aureus; Staphylococcus aureus strains,0.25 µg/mL
same,MIC90,S. aureus; Staphylococcus aureus strains,0.5 µg/mL
same,MIC,"S. aureus; MRSA, strain MRSA 01",0.25 µg/mL
same,MIC,"S. aureus; MRSA, strain MRSA 02",0.25 µg/mL
same,MIC,"S. aureus; MRSA, strain MRSA 03",0.25 µg/mL
same,MIC,"S. aureus; MRSA, strain MRSA 04",0.25 µg/mL
same,MIC,"S. aureus; MRSA, strain MRSA 05",0.25 µg/mL
same,MIC,"S. aureus; MRSA, strain MRSA 06",0.25 µg/mL
same,MIC,"S. aureus; MRSA, strain MRSA 08",0.25 µg/mL
same,MIC,"S. aureus; MRSA, strain MRSA 10",0.25 µg/mL
same,MIC,"S. aureus; MRSA, strain MRSA 11",0.25 µg/mL
same,MIC,"S. aureus; MRSA, strain MRSA 12",0.5 µg/mL
same,MIC,"S. aureus; MRSA, strain MRSA 13",0.25 µg/mL
same,MIC,"S. aureus; MRSA, strain MRSA 14",0.25 µg/mL
same,MIC,"S. aureus; MRSA, strain MRSA 15",0.25 µg/mL
same,MIC,"S. aureus; MRSA, strain MRSA 16",0.25 µg/mL
same,MIC,"S. aureus; MRSA, strain MRSA 17",0.25 µg/mL
same,MIC,"S. aureus; MRSA, strain MRSA 18",0.25 µg/mL
same,MIC,"S. aureus; MRSA, strain MRSA 19",0.25 µg/mL
same,MIC,"S. aureus; MRSA, strain MRSA 20",0.25 µg/mL
same,MIC,"S. aureus; MRSA, strain MRSA 21",0.25 µg/mL
same,MIC,"S. aureus; MRSA, strain MRSA 22",0.25 µg/mL
same,MIC,"S. aureus; MRSA, strain MRSA 23",0.25 µg/mL
same,MIC,"S. aureus; MRSA, strain MRSA 24",0.25 µg/mL
same,MIC,"S. aureus; MRSA, strain MRSA 25",0.25 µg/mL
same,MIC,"S. aureus; MRSA, strain MRSA 26",0.5 µg/mL
same,MIC,"S. aureus; MRSA, strain MRSA 27",0.5 µg/mL
same,MIC,"S. aureus; MRSA, strain MRSA 28",0.25 µg/mL
same,MIC,"S. aureus; MRSA, strain MRSA 29",0.5 µg/mL
same,MIC,"S. aureus; MRSA, strain MRSA 30",0.25 µg/mL
same,MIC,"S. aureus; MRSA, strain MRSA 31",0.25 µg/mL
same,MIC,"S. aureus; MRSA, strain MRSA 32",0.25 µg/mL
same,MIC,"S. aureus; MRSA, strain MRSA 33",0.25 µg/mL
same,MIC,"S. aureus; MRSA, strain MRSA 34",0.25 µg/mL
same,MIC,"S. aureus; MRSA, strain MRSA 35",0.25 µg/mL
same,MIC,"S. aureus; MRSA, strain MRSA 70",0.125 µg/mL
same,MIC,"S. aureus; MRSA, strain MRSA 73",0.5 µg/mL
same,MIC,"S. aureus; MRSA, strain MRSA 75",0.5 µg/mL
same,MIC,"S. aureus; MRSA, strain MRSA 78",0.5 µg/mL
same,MIC,"S. aureus; MRSA, strain MRSA 80",0.5 µg/mL
same,MIC,"S. aureus; MRSA, strain MRSA 81",0.5 µg/mL
same,MIC,"S. aureus; MRSA, strain MRSA 83",0.5 µg/mL
same,MIC,"S. aureus; MRSA, strain MRSA 88",0.25 µg/mL
same,MIC,"S. aureus; MRSA, strain MRSA 90",0.5 µg/mL
same,MIC,"S. aureus; MRSA, strain MRSA 91",0.25 µg/mL
same,MIC,"S. aureus; MRSA, strain MRSA 92",0.25 µg/mL
same,MIC,"S. aureus; MRSA, strain MRSA 93",0.25 µg/mL
same,MIC,"S. aureus; MRSA, strain MRSA 94",0.25 µg/mL
same,MIC,"S. aureus; MRSA, strain MRSA 95",0.25 µg/mL
same,MIC,"S. aureus; MRSA, strain MRSA 96",0.25 µg/mL
same,MIC,"S. aureus; MRSA, strain MRSA 97",0.25 µg/mL
same,MIC,"S. aureus; MRSA, strain MRSA 98",0.5 µg/mL
same,MIC,"S. aureus; MRSA, strain MRSA 99",0.25 µg/mL
same,MIC,"S. aureus; MRSA, strain MRSA 100",0.25 µg/mL
same,MIC,"S. aureus; MRSA, strain MRSA 101",0.5 µg/mL
same,MIC,"S. aureus; MRSA, strain MRSA 102",0.25 µg/mL
same,MIC,"S. aureus; MRSA, strain MRSA 103",0.25 µg/mL
same,MIC,"S. aureus; MRSA, strain MRSA 104",0.5 µg/mL
same,MIC,"S. aureus; MRSA, strain MRSA 105",0.25 µg/mL
same,MIC,"S. aureus; MRSA, strain MRSA 106",0.25 µg/mL
same,MIC,"S. aureus; MRSA, strain MRSA 107",0.25 µg/mL
same,MIC,"S. aureus; MRSA, strain MRSA 108",0.25 µg/mL
same,MIC,"S. aureus; MRSA, strain MRSA 109",0.25 µg/mL
same,MIC,"S. aureus; MRSA, strain MRSA 110",0.25 µg/mL
same,MIC,"S. aureus; MRSA, strain MRSA 111",0.5 µg/mL
same,MIC,"S. aureus; MRSA, strain MRSA 112",0.25 µg/mL
same,MIC,"S. aureus; MRSA, strain MRSA 113",0.25 µg/mL
same,MIC,"S. aureus; MSSA, strain MSSA 01",0.5 µg/mL
same,MIC,"S. aureus; MSSA, strain MSSA 02",0.25 µg/mL
same,MIC,"S. aureus; NEWMAN, strain Newman",0.25 µg/mL
same,frequency of mutation of resistance,P. acnes; P. acnes,less than 1×10^−9
same,"frequency of mutation, times lower than the two comparator compounds fusidic acid and retapamulin",P. acnes; P. acnes,at least 10 times
same,Frequency of mutation/ml,P. acnes; P. acnes strain 998,<2.5e-09 mL⁻¹
same,Frequency of mutation/ml,P. acnes; P. acnes strain 1044,<1.92e-08 mL⁻¹
same,Frequency of mutation/ml,P. acnes; P. acnes strain CSS3023,<4.55e-09 mL⁻¹
same,Frequency of mutation/ml,P. acnes; P. acnes strain CSS3288,<2.7e-09 mL⁻¹
